The values below are quoted from earlier work in patent publication US20240325430A1, “MULTIPLE FOLATE FORMULATION AND USE THEREOF” (JAYMAC PHARMACEUTICAL LLC, priority 2012, published 2024).

For the data set, the system named is hydrocephalic Texas rats. The conditions noted are these: injected into hydrocephalic Texas rats during fetal development; J Neuropathol Exp Neurol 2009.

For `Nc1nc2ncc(CNc3ccc(C(=O)N[C@@H](CCC(=O)O)C(=O)O)cc3)nc2c(=O)[nH]1` [folic acid], the incidence of hydrocephalus result is listed as “significant increase”.
